Data from BindingDB's records for doi:10.1021/cb400200h (University of Oxford, 2013).

Each compound was assayed against Peptidoglycan D,D-transpeptidase FtsI (Pseudomonas aeruginosa (strain PA7), UniProt A6VB91) (assay: IC50 Assay). Conditions: pH 7.2; 25 °C.
Peptidoglycan D,D-transpeptidase FtsI, sequence (A6VB91 whole entry): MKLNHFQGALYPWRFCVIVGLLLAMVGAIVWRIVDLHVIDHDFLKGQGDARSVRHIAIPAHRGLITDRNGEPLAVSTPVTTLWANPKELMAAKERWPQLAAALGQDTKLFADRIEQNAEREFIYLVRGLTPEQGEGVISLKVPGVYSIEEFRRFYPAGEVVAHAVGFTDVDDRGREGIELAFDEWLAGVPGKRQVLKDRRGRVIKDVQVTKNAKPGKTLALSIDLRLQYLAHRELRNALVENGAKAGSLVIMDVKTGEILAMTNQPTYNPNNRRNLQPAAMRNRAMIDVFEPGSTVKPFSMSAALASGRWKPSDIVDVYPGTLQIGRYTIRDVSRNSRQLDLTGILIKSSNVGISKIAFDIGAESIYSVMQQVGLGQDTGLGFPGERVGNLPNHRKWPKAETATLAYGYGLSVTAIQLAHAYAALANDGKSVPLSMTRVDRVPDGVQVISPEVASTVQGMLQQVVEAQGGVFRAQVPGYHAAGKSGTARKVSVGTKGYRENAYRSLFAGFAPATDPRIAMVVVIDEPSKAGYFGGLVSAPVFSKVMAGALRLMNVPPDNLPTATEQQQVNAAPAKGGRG
Procedure: An appropriate amount of enzyme (4uM) was pre-incubated with the (5R)- or 5(S)-penicilloic acid in the assay buffer (50mM HEPES-NaOH buffer (pH 7.2) supplemented with 0.01% Triton-100) at room temperature for 10 min. Nitrocefin (100uM) was added to initiate the assay. The IC50 values were determined using the software package Graph Prism 5.01.
For `CCN1CCN(C(=O)N[C@@H](C(=O)N[C@H](C(=O)O)[C@@H]2N[C@@H](C(=O)O)C(C)(C)S2)C2C=CC=CC2)C(=O)C1=O` (stereo partly drawn) [(5R)-PA], the IC50 was 196 µM. In the case of `CCN1CCN(C(=O)N[C@@H](C(=O)N[C@@H]2C(=O)N3[C@@H]2SC(C)(C)[C@@H]3C(=O)O)c2ccccc2)C(=O)C1=O`, the IC50 is reported as 0.166 µM. With `CCN1CCN(C(=O)N[C@@H](C(=O)N[C@H](C(=O)O)[C@H]2N[C@@H](C(=O)O)C(C)(C)S2)C2C=CC=CC2)C(=O)C1=O` (stereo partly drawn) [(5S)-PA] the IC50 was 126 µM.
